Our source for the LC50 values is ChEMBL document CHEMBL1150892, “Kalkipyrone, a toxic gamma-pyrone from an assemblage of the marine cyanobacteria Lyngbya majuscula and Tolypothrix sp” (J Nat Prod, 1998).

Values after ≈ are worked out from the molar mass of the structure shown.

Data set [1] is described as follows: Ichthyotoxicity in gold fish after 1 hr. Format: organism-based. To be noted: carassius auratus, in vivo; read-out: LD50.
A short description of data set [2]: Toxicity in Artemia salina. It counts as organism-based. The conditions noted are these: in vivo, read-out: LD50 (the source's name).

On to `COc1oc(C/C=C(\C)C/C=C/C(C)=C/[C@@H](C)O)c(C)c(=O)c1C` [KALKIPYRONE], for which the LC50 at 1 h in data set [1] came out at 2 µg/mL (≈ 6.02 µM). In addition, the LC50 in data set [2] was determined as 1 µg/mL (≈ 3.01 µM).
